Measured values: ChEMBL document CHEMBL4725294, “Centrally Active Multitarget Anti-Alzheimer Agents Derived from the Antioxidant Lead CR-6” (J Med Chem, 2020)
The source made the active and inactive calls. The rule behind the calls is not given here.

Legend:
Mus musculus [1] = test: Antialzheimer activity in APP/PS1 double mutant-transgenic C57BL6/J mouse model assessed as increase in Nrf2 level at 10 mg/kg/day, ip for 4 weeks followed by compound washout and measured after 24 hrs by Western blot analysis; format: functional, organism-based
Cholinesterase = Cholinesterase (Homo sapiens, UniProt P06276)
Description: Inhibition of recombinant human BChE using butyrylthiocholine iodide as substrate preincubated for 15 mins followed by substrate addition by Ellman's method

Mus musculus [2] = test: Antialzheimer activity in APP/PS1 double mutant-transgenic C57BL6/J mouse model assessed as reduction in amyloid beta burden in cortex at 10 mg/kg/day, ip for 4 weeks followed by compound washout and measured after 24 hrs by hematoxylin staining based microscopic analysis; format: functional, organism-based
Mus musculus [3] = test: Antialzheimer activity in APP/PS1 double mutant-transgenic C57BL6/J mouse model assessed as reduction in Bace1 gene expression at 10 mg/kg/day, ip for 4 weeks followed by compound washout and measured after 24 hrs by qPCR analysis; format: functional, organism-based
Mus musculus [4] = test: Antialzheimer activity in APP/PS1 double mutant-transgenic C57BL6/J mouse model assessed as reduction in soluble amyloid beta 42 level in cortex at 10 mg/kg/day, ip for 4 weeks followed by compound washout and measured after 24 hrs by ELISA; format: functional, organism-based
Mus musculus [5] = test: Antialzheimer activity in APP/PS1 double mutant-transgenic C57BL6/J mouse model assessed as reduction in soluble amyloid beta 40 level in cortex at 10 mg/kg/day, ip for 4 weeks followed by compound washout and measured after 24 hrs by ELISA; format: functional, organism-based
[6] = Acute toxicity in C57BL6/J mouse assessed as reduction in locomotor activity at 15 mg/kg, ip measured after 10 to 15 mins; format: organism-based; details: in vivo, time 10-15 min
[7] = Acute toxicity in C57BL6/J mouse assessed as ptosis at 15 mg/kg, ip measured after 10 to 15 mins; format: organism-based; details: in vivo, time 10-15 min
[8] = Acute toxicity in C57BL6/J mouse at 5 to 10 mg/kg, ip measured up to 24 hrs; format: organism-based; details: in vivo, dose 5-10 mg/kg
Mus musculus [9] = test: Antialzheimer activity in APP/PS1 double mutant-transgenic C57BL6/J mouse model assessed as reduction in oxidized protein level at 10 mg/kg/day, ip for 4 weeks followed by compound washout and measured after 24 hrs by Western blot analysis; format: functional, organism-based
[10] = Acute toxicity in C57BL6/J mouse assessed as tremor at 15 mg/kg, ip measured after 10 to 15 mins; format: organism-based; details: in vivo, time 10-15 min
Mus musculus [11] = test: Antialzheimer activity in APP/PS1 double mutant-transgenic C57BL6/J mouse model assessed as increase in SOD2 level at 10 mg/kg/day, ip for 4 weeks followed by compound washout and measured after 24 hrs by double immunostaining assay; format: functional, organism-based
Mus musculus [12] = test: Antialzheimer activity in APP/PS1 double mutant-transgenic C57BL6/J mouse model assessed as reduction in Bace1 expression at 10 mg/kg/day, ip for 4 weeks followed by compound washout and measured after 24 hrs by Western blot analysis; format: functional, organism-based
Mus musculus [13] = test: Antialzheimer activity in APP/PS1 double mutant-transgenic C57BL6/J mouse model assessed as increase in GPX1 level at 10 mg/kg/day, ip for 4 weeks followed by compound washout and measured after 24 hrs by Western blot analysis; format: functional, organism-based
Beta-secretase 1 = Beta-secretase 1 (Homo sapiens, UniProt P56817); test: Inhibition human BACE1 expressed in baculovirus expression system using Panvera peptide as substrate measured after 60 mins by fluorescence assay; details: read-out: IC50
[14] = Acute toxicity in C57BL6/J mouse assessed as piloerection at 15 mg/kg, ip measured after 10 to 15 mins; format: organism-based; details: in vivo, time 10-15 min
[15] = Acute toxicity in C57BL6/J mouse at 15 mg/kg, ip measured after 3 hrs; format: organism-based; details: in vivo
Mus musculus [16] = test: Improvement in memory impairment in APP/PS1 double mutant-transgenic C57BL6/J mouse model assessed as […] at 10 mg/kg/day, ip for 4 weeks followed by compound washout by maze two-object recognition test; format: functional, organism-based
Mus musculus [17] = test: Antialzheimer activity in APP/PS1 double mutant-transgenic C57BL6/J mouse model assessed as increase in Adam10 expression at 10 mg/kg/day, ip for 4 weeks followed by compound washout and measured after 24 hrs by Western blot analysis; format: functional, organism-based
Mus musculus [18] = test: Antialzheimer activity in APP/PS1 double mutant-transgenic C57BL6/J mouse model assessed as increase in Adam10 gene expression at 10 mg/kg/day, ip for 4 weeks followed by compound washout and measured after 24 hrs by qPCR analysis; format: functional, organism-based
Acetylcholinesterase = Acetylcholinesterase (Homo sapiens, UniProt P22303)
Description: Inhibition of recombinant human AChE expressed in HEK293 cells using acetylthiocholine iodide as substrate preincubated for 15 mins followed by substrate addition by Ellman's method

in vitro = details: PAMPA
Description: Permeability of compound in PBS/EtOH buffer (7:3) PAMPA-BBB assay

Cholinesterase, sequence (P06276 whole entry): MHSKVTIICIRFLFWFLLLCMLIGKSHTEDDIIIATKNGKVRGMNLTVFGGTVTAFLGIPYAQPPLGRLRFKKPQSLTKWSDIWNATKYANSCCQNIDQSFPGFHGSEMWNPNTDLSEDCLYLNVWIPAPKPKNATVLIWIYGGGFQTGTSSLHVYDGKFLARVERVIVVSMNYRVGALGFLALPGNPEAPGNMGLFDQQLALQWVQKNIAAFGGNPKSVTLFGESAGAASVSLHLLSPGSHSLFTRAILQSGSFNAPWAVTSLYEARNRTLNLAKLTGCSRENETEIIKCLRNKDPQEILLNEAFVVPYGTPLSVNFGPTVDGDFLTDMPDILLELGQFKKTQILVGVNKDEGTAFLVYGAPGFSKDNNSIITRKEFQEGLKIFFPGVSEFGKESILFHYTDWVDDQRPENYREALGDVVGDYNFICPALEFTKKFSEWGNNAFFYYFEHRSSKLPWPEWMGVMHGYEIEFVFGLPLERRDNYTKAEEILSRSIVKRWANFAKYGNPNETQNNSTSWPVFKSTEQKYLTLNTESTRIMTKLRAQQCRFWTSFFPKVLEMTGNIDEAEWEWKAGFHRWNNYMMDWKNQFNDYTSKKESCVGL
Beta-secretase 1, sequence (P56817 whole entry): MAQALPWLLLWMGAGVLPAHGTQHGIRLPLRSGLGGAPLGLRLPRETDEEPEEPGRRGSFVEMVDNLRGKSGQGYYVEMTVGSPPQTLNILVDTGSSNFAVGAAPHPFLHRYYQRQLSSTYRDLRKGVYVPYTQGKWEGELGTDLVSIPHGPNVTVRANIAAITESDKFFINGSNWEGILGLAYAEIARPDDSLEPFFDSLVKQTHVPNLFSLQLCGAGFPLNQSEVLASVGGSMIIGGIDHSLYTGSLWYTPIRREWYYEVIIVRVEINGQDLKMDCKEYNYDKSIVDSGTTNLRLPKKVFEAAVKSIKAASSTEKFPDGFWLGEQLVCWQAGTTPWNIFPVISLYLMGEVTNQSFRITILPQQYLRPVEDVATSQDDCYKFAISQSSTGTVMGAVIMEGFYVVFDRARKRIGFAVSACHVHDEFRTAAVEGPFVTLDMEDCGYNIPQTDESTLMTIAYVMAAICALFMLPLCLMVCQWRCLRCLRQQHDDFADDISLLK
Acetylcholinesterase, sequence (P22303 whole entry): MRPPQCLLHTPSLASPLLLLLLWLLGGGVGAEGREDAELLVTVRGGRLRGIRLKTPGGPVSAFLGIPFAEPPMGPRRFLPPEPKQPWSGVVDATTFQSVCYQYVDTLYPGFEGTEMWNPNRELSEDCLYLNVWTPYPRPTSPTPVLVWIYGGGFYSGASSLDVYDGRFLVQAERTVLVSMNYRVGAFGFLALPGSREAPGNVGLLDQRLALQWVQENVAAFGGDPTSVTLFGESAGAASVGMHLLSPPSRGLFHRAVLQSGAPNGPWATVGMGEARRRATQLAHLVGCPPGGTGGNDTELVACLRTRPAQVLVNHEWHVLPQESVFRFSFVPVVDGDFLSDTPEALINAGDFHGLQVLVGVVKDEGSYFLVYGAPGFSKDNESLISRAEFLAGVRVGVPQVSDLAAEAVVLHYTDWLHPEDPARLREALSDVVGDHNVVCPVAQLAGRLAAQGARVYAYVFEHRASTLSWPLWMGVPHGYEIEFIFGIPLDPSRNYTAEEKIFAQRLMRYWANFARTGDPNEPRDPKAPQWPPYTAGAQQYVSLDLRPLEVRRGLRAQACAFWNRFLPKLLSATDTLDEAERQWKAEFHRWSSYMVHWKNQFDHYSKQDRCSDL

Compound: COc1cc2c(cc1OCc1ccccc1)CCC(C)(CC(=O)NCCCCCCCCNc1c3c(nc4cc(Cl)ccc14)CCCC3)O2 (configuration not stated)
- Activity (Mus musculus [1]): inactive
- IC50 (Cholinesterase): 100 nM
- Activity (Mus musculus [2]): inactive
- Activity (Mus musculus [3]): Active
- Activity (Mus musculus [4]): inactive
- Activity (Mus musculus [5]): inactive
- Activity [6]: Toxic
- Activity [7]: Toxic
- Activity [8]: Non-Toxic
- Activity (Mus musculus [9]): inactive
- Activity [10]: Toxic
- Activity (Mus musculus [11]): inactive
- Activity (Mus musculus [12]): inactive
- Activity (Mus musculus [13]): inactive
- IC50 (Beta-secretase 1): 8310 nM
- Activity [14]: Toxic
- Activity [15]: Non-Toxic
- Activity (Mus musculus [16]): inactive
- Activity (Mus musculus [17]): Active
- Activity (Mus musculus [18]): Active
- IC50 (Acetylcholinesterase): 10.4 nM
- Papp (in vitro): 12.3 ×10⁻⁶ cm/s
